Source: PubChem BioAssay AID504508 (Sanford-Burnham Center for Chemical Genomics, 2011)
pIC50: −log10 of the molar value.

tested on: 697 B-cell NF-kB luciferase reporter, PMA/ionomycin, 16 h; assay: NF-kB luciferase reporter inhibition in 697 B cells – B-cell specific, luminescence, set 2, SAR follow-up (AID 504508)

Row | pIC50 | SMILES
1 | 6.72 | Cc1oc(-c2ccc(OC(F)(F)F)cc2)nc1CSCC(=O)O
2 | 7.10 | CCOc1ccc(-c2nc(CSCC(N)=O)c(C)o2)cc1
3 | 6.96 | CCCCc1ccc(-c2noc(CCC(=O)NC)n2)cc1
4 | 7.10 | CCCCOc1ccc(-c2nc(CSCC(=O)O)c(C)o2)cc1
5 | 7.30 | CCOc1ccc(-c2nc(CSCC(=O)O)c(C)o2)cc1
6 | 7.05 | CCCOc1ccc(-c2nc(CSCC(=O)NC3CC3)c(C)o2)cc1
7 | 6.60 | CC(C)c1ccc(-c2noc(CCC(=O)NC3CC3)n2)cc1
8 | 7.05 | CCCOc1ccc(-c2nc(CSCC(=O)NCc3ccco3)c(C)o2)cc1
9 | 7.40 | CCCOc1ccc(-c2nc(CSCC(=O)O)c(C)o2)cc1
10 | 7.22 | C#CCNC(=O)CSCc1nc(-c2ccc(OCC)cc2)oc1C
11 | 6.89 | CCCCc1ccc(-c2noc(CCC(=O)NCC)n2)cc1
